Measured values taken from patent publication US20110046217A1, “USE OF 2,2'-CYCLOLIGNANS FOR INDUCING, RESTORING OR STIMULATING THE PIGMENTATION OF THE SKIN, HAIR OR HAIRS” (priority 2007, published 2011).
“And” between values parts separate entries of the source, which are not always exact repeats. Equal values may be shown once.

How the values were obtained:
melanocyte = assay: Formation of a dense dendritic network in the melanocyte; assay type: cell-based
B16 melanocytes [1] = assay: Melanin assay, synthesis of melanin by B16 melanocytes; assay type: cell-based; conditions: for melanin production in the melanocyte cultures: treated at non-toxic doses
Description: The melanogenesis-stimulating effect of gomisin A was measured on B16 melanocyte cultures.
For gomisin A, the following were determined: • after culturing for 10 days under standard conditions, in 24-well plates, in Promocell medium free of “phorbol myristate acetate” (PMA):
the amount of melanin present in the cultures, by spectrophotometric measurement of the melanin produced, after alkaline extraction, relative to 100% of the control (the control corresponds to the test performed without test compound).
The melanogenesis-stimulating effect of gomisin C was measured on B16 melanocyte cultures.
For gomisin C, the following were determined: • after culturing for 10 days under standard conditions, in 24-well plates, in Promocell medium free of “phorbol myristate acetate” (PMA): […]

keratinocytes = assay: Phagocytic activity of the keratinocytes; assay type: cell-based
B16 melanocytes [2] = assay: MTT test and morphological observations, viability of B16 melanocytes; assay type: cell-based; conditions: for MTT (%): Table 2, plate 1; for MTT test, average / MTT test, single reading / viability (%): 72 h contact; for % cell viability: Table 4
follicle (hair bulb) = assay: Pigmentation and survival of the hair follicle
[3] = tested on: Caucasian primary melanocytes; assay: Melanin produced in normal human melanocytes; assay type: cell-based; conditions: 30 μM, 4 days, in the presence of L-dopa (50 μM), vs control
Description: The study was carried out on Caucasian primary melanocytes during culturing. The test and reference formulations were applied in the presence of L-dopa which is the substrate of tyrosinase (50 μM) (Sigma, D9628-5G) for 4 days, the culture medium having been renewed after 2 days. The product GPN000715 was applied at three different concentrations: 10 μM, 30 μM and 80 μM. An application of 100 nM of the reference element (MSH) was carried out, and also an application of 0.1 mM of arbutin. The untreated control cells (CTL) stayed in the culture medium.
The melanocytes were seeded in 6-well plates at a cell density of +/−100 000 cells. One week after seeding the cells, the test and reference products were applied, in the presence of L-dopa. After 4 days of treatment, cell lysis was carried out using a solution of NaOH (1N) (Merck, 109956) over 24 hours, at 37° C. The cell lysates were then centrifuged for 10 minutes, then 120 μl of each lysate was transferred into a 96-well plate in order to read the absorbance at 450 nm. The melanin content of each sample was quantified by comparison with the absorbances from the standard curve made with synthetic melanin (Sigma, M8631-100MG), ranging from 0 to 100 μg/ml.
FIG. 1 represents a quantification of the production of melanin by melanocytes, in a single layer, after 4 days of application in the presence of the test and reference elements. […]

## COc1cc2c(c(OC)c1OC)-c1c(cc3c(c1OC)OCO3)C[C@H](C)[C@](C)(O)C2 [Gomisin A, gomisin A]
melanocyte
  formation of a dense dendritic network in the melanocyte: stimulating
B16 melanocytes [1]; Table 2, plate 1, 0.0022 mg/ml
  Melanin: 16.62 µg/mL
  Melanin % Control: 121%
B16 melanocytes [1]; Table 2, plate 1, 0.0067 mg/ml
  Melanin: 22.66 µg/mL
  Melanin % Control: 164%
B16 melanocytes [1]; Table 2, plate 1, 0.02 mg/ml
  Melanin: 27.73 µg/mL
  Melanin % Control: 201%
B16 melanocytes [1]
  melanin production in the melanocyte cultures: significant increase in melanin production
keratinocytes
  phagocytic activity of the keratinocytes: stimulating
B16 melanocytes [2]; 0.0022 mg/ml
  MTT (%): 102%
B16 melanocytes [2]; 0.0067 mg/ml
  MTT (%): 99%
B16 melanocytes [2]; 0.02 mg/ml
  MTT (%): 102%
B16 melanocytes [2]; gomisin A 0.002 mg/ml
  MTT test, average: 2.001
  MTT test, single reading: 2.022 and 2.112 and 2.077 and 1.920 and 1.933 and 1.942
  viability (%): 105%
B16 melanocytes [2]; gomisin A 0.007 mg/ml
  MTT test, average: 2.081
  MTT test, single reading: 2.046 and 2.137 and 2.227 and 2.061 and 1.966
  viability (%): 109%
B16 melanocytes [2]; gomisin A 0.02 mg/ml
  MTT test, average: 2.128
  MTT test, single reading: 2.227 and 2.046 and 2.241 and 1.988 and 2.085 and 2.182
  viability (%): 112%
B16 melanocytes [2]; gomisin A 2E−04 mg/ml
  MTT test, average: 1.850
  MTT test, single reading: 1.878 and 1.932 and 1.972 and 1.721 and 1.807 and 1.787
  viability (%): 97%
B16 melanocytes [2]; gomisin A 3E−05 mg/ml
  MTT test, average: 1.835
  MTT test, single reading: 1.961 and 1.784 and 1.853 and 1.764 and 1.910 and 1.740
  viability (%): 96%
B16 melanocytes [2]; gomisin A 7E−04 mg/ml
  MTT test, average: 1.974
  MTT test, single reading: 1.976 and 1.996 and 2.147 and 1.844 and 1.896 and 1.987
  viability (%): 104%
B16 melanocytes [2]; gomisin A 8E−05 mg/ml
  MTT test, average: 1.886
  MTT test, single reading: 1.964 and 1.891 and 1.965 and 1.899 and 1.829 and 1.770
  viability (%): 99%
B16 melanocytes [2]; gomisin A 9.1E−06 mg/ml
  MTT test, average: 1.910
  MTT test, single reading: 1.837 and 1.963 and 1.930 and 1.951 and 1.879 and 1.901
  viability (%): 100%
Follicle (hair bulb)
  degeneration and survival of the follicle: limits degeneration and increases the survival of the follicle
  pigmentation of the follicle (hair bulb): substantially stimulates the pigmentation of the follicle
[3]
  increase of the amount of melanin in normal human melanocytes: ~40%

## CC(C)Cn1c(=O)n(C)c(=O)c2[nH]cnc21 [IBMX, reference compound]
B16 melanocytes [1]; Table 2, plate 1, 200 μM
  Melanin: 173.77 µg/mL
  Melanin % Control: 1261%
B16 melanocytes [1]; Table 4, 8 μM
  Melanin: 18.88 µg/mL
  Melanin % Control: 117%
B16 melanocytes [1]; Table 4, 40 μM
  Melanin: 25.91 µg/mL
  Melanin % Control: 161%
B16 melanocytes [1]; Table 4, 200 μM
  Melanin: 90.45 µg/mL
  Melanin % Control: 561%
B16 melanocytes [2]; 200 μM
  MTT (%): 99%
  % cell viability: 99%
B16 melanocytes [2]; 8 μM
  % cell viability: 96%
B16 melanocytes [2]; 40 μM
  % cell viability: 94%

## COc1cc2c(c(OC)c1OC)-c1c(cc3c(c1OC)OCO3)C[C@H](C)[C@](C)(O)[C@H]2OC(=O)c1ccccc1 [Gomisin C, gomisin C]
B16 melanocytes [1]; Table 4, 0.4 μg/ml
  Melanin: 16.66 µg/mL
  Melanin % Control: 103%
B16 melanocytes [1]; Table 4, 2 μg/ml
  Melanin: 17.46 µg/mL
  Melanin % Control: 108%
B16 melanocytes [1]; Table 4, 8 μg/ml
  Melanin: 19.44 µg/mL
  Melanin % Control: 121%
B16 melanocytes [1]
  melanin production in the melanocyte cultures: significant increase in melanin production
B16 melanocytes [2]; 0.4 μg/ml
  % cell viability: 102%
B16 melanocytes [2]; 2 μg/ml
  % cell viability: 97%
B16 melanocytes [2]; 8 μg/ml
  % cell viability: 101%
B16 melanocytes [2]; gomisin C 0.0002 %
  MTT test, average: 2.783
  MTT test, single reading: 2.786 and 2.783 and 2.780
  viability (%): 101%
B16 melanocytes [2]; gomisin C 0.0008 %
  MTT test, average: 2.844
  MTT test, single reading: 2.834 and 2.824 and 2.873
  viability (%): 103%
B16 melanocytes [2]; gomisin C 0.004 %
  MTT test, average: 1.899
  MTT test, single reading: 1.871 and 1.873 and 1.954
  viability (%): 69%
B16 melanocytes [2]; gomisin C 0.02 %
  MTT test, average: 1.136
  MTT test, single reading: 1.208 and 1.146 and 1.205
  viability (%): 43%
B16 melanocytes [2]; gomisin C 1E−06 %
  MTT test, average: 2.811
  MTT test, single reading: 2.793 and 2.813 and 2.827
  viability (%): 102%
B16 melanocytes [2]; gomisin C 2.56E−07 %
  MTT test, average: 2.790
  MTT test, single reading: 2.786 and 2.781 and 2.804
  viability (%): 101%
B16 melanocytes [2]; gomisin C 3E−05 %
  MTT test, average: 2.801
  MTT test, single reading: 2.789 and 2.795 and 2.818
  viability (%): 101%
B16 melanocytes [2]; gomisin C 6E−06 %
  MTT test, average: 2.792
  MTT test, single reading: 2.778 and 2.796 and 2.801
  viability (%): 101%
